This is an account of results in patent publication US20180228775A1, “METHODS OF TREATING CANCER” (Dana-Farber Cancer Institute, Inc., priority 2014, published 2018).

For one assay, the system named is human PBMC. Nature of the assay: Culture of human PBMC with GM-CSF (K562-GM) and PPAR-γ modulators: Treg numbers. The class given is cell-based.
The subject of assay [1] is GM-CSF treated human monocytes. Kind of assay: CCL17 and CCL22 expression by GM-CSF treated human monocytes (ELISA). The class given is cell-based. Particulars: human monocytes with GM-CSF. The procedure: CCL17 levels were normalized to the number of monocytes per well.
FIG. 43: Role of PPAR-g in restraining Treg recruitment and expansion is conserved in GM-CSF treated human monocytes.
CCL17 levels were measured using ELISA (DY364, R&D Systems).
In addition, these cultures were treated with DMSO or Rosi.
For orientation: ELISA stands for enzyme-linked immunosorbent assay.

In the case of `CN(CCOc1ccc(CC2SC(=O)NC2=O)cc1)c1ccccn1` (stereo not shown) [Rosi, rosiglitazone], the Treg number result with human PBMC (non-GM-CSF treated cultures (K562-WT)) is reported as “no effect”.

Take `O=C(Nc1ccncc1)c1cc([N+](=O)[O-])ccc1Cl` [T0070907]: in the assay on human PBMC (human PBMC with GM-CSF (K562-GM), 10 uM Rosi or T0070907 luM every 48 hours, day 4-6), the “Treg number / GM-CSF induced Treg expansion” value is given as “increase”. Further, in assay [1], the CCL22 expression result is on record as “increasing”. Further, the CCL17 expression entry in assay [1] (10 uM Rosi, 5 days, ELISA) is reported as “increasing”.
